From patent US8742106B2 (Novartis AG, priority 2009, dated 2014)

Tests used:
[1] = molecular target: T1, human orexin 2 receptors (Homo sapiens (Human), UniProt O43614); test: Calcium Accumulation in Cells (FLIPR), antagonism of orexin A; type: cell-based; conditions: antagonism of orexin A, Cheng-Prusoff corrected; read-out: FLIPR hOx2R Ki
Procedure, shortened: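 Antagonism was measured as block of orexin A-evoked Ca²⁺ fluorescence (FLIPR), with orexin A added one hour after test compound (usually 10^−9–10^−5 M), which was first read alone for agonist activity. Human orexin 2 receptor cells were dye-loaded with 2 μM Fluo4-AM and 0.1 mM probenecid for 1 h.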

[2] = molecular target: T1, human orexin 2 receptors; test: Radioligand Binding Assay II ([3H]-SB649868 competition, cell membranes); conditions: read-out: binding II hOx2R Kd
Description: (§1) Radioligand Binding Assay II
(§2) For crude cell membrane preparations, cells (CHO, Chinese hamster ovary or HEK, human embryonic kidney) expressing human orexin 1 or human orexin 2 receptors, were washed with HEPES (10 mM, pH 7.5), scraped off the culture plates with the same buffer, and centrifuged at 4° C. for 5 min at 2500×g. The cell pellet was either stored at −80° C. or used directly. Before the experiments, cell membranes were re-suspended in binding assay buffer (10 mM HEPES, 0.5% (w/v) bovine serum albumin, pH 7.5) by homogenisation with a Polytron homogeniser at 50 Hz for 20 s. Cell membranes were also used as made available by commercial providers.
(§3) Bound radioactivity was measured, and data were analysed with the program XLFIT or Graphpad Prism. Protein concentration was determined according to the Bradford/BioRad Protein Assay Kit.
(§4) In competition experiments, cell homogenates (150 μl) were incubated in assay buffer (10 mM HEPES, pH 7.5, 0.5% (w/v) bovine serum albumin, 5 mM MgCl2, 1 mM CaCl2, and tween 0.05%) for 1 h at room temperature with about 1 nM of the radioligand [^3H]-SB649868, 66 Ci/mmole, 50 μl), and with various concentrations of compounds of the invention (50 μl) in triplicates; non-specific binding was determined in the presence of almorexant (10 μM). Reactions were terminated by vacuum filtration, 3 washes of ice cold wash buffer (Tris-HCl pH 7.4/10 mM, with NaCl 154 mM).

[3] = molecular target: T2, human orexin 1 receptors (Homo sapiens (Human), UniProt O43613); test: Calcium Accumulation in Cells (FLIPR), antagonism of orexin A; type: cell-based; conditions: antagonism of orexin A, Cheng-Prusoff corrected; read-out: FLIPR hOx1R Ki
T2 sequence (O43613 whole entry): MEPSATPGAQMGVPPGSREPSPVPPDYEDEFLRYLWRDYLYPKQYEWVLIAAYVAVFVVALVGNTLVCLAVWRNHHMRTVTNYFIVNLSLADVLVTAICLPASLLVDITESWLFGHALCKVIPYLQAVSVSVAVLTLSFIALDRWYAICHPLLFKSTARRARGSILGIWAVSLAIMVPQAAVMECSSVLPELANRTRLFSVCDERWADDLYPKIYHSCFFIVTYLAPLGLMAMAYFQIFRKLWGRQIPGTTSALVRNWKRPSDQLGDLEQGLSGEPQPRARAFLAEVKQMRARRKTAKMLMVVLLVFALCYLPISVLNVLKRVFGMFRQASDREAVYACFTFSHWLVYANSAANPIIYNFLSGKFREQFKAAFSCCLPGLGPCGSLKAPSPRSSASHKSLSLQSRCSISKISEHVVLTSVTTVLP

[4] = molecular target: T2, human orexin 1 receptors; test: Radioligand Binding Assay II ([3H]-SB649868 competition, cell membranes); conditions: read-out: binding II hOx1R Kd
Description: as §1, §2, §3
as §4, with “mM). Competition data is expressed in Table 2 as Kd [μM].” for “mM).”

T1 sequence (O43614 whole entry): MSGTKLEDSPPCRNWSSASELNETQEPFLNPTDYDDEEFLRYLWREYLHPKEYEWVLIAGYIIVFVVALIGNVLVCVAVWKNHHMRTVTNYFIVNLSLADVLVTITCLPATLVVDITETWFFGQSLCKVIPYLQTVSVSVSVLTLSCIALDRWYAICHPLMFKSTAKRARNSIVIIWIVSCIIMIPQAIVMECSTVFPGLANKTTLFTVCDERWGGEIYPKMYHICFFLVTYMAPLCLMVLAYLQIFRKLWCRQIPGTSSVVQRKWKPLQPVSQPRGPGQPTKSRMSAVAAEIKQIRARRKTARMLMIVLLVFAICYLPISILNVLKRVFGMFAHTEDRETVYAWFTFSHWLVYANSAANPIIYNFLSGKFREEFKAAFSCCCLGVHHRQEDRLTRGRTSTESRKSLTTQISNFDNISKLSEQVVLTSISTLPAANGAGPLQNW

Structure (SMILES)	Ki [1]	Kd [2]	Ki [3]	Kd [4]
Cc1ccc([C@H](C)NC(=O)COc2cc(C)c3c(-c4ncccc4F)nn(C)c3n2)cc1 [Example 4.1, (S)-2-((3-(3-fluoropyridin-2-yl)-1,4-dimethyl-1H-pyrazolo[3,4-b]pyridin-6-yl)oxy)-N-(1-(p-tolyl)ethyl)acetamide]	35 nM	22 nM	133 nM	27 nM
Cc1ccc([C@H](C)NC(=O)COc2cc(C)c3c(-c4ncco4)nn(C)c3n2)cc1 [Example 4.2, (S)-2-(1,4-dimethyl-3-(oxazol-2-yl)-1H-pyrazolo[3,4-b]pyridin-6-yloxy)-N-(1-p-tolylethyl)acetamide]	32 nM	17 nM	67 nM	10 nM
Cc1ccc([C@H](C)NC(=O)COc2cc(C)c3c(-c4cnn(C)c4)nn(C)c3n2)cc1 [Example 4.6, (S)-2-(1,4-dimethyl-3-(1-methyl-1H-pyrazol-4-yl)-1H-pyrazolo[3,4-b]pyridin-6-yloxy)-N-(1-p-tolylethyl)acetamide]	89 nM	82 nM	247 nM	76 nM
Cc1ccc([C@H](C)NC(=O)COc2cc(C)c3c(-c4ncccn4)nn(C)c3n2)cc1 [Example 4.7, (S)-2-(1,4-dimethyl-3-(pyrimidin-2-yl)-1H-pyrazolo[3,4-b]pyridin-6-yloxy)-N-(1-p-tolylethyl)acetamide]	9 nM	13 nM	4 nM	11 nM
Cc1ccc([C@H](C)NC(=O)COc2cc(C)c3c(-c4cnccn4)nn(C)c3n2)cc1 [Example 4.8, (S)-2-(1,4-dimethyl-3-(pyrazin-2-yl)-1H-pyrazolo[3,4-b]pyridin-6-yloxy)-N-(1-p-tolylethyl)acetamide]	15 nM	22 nM	52 nM	20 nM
Cc1ccc([C@H](C)NC(=O)COc2cc(C)c3c(-c4ccc(C)cn4)nn(C)c3n2)cc1 [Example 4.9, (S)-2-(1,4-dimethyl-3-(5-methylpyridin-2-yl)-1H-pyrazolo[3,4-b]pyridin-6-yloxy)-N-(1-p-tolylethyl)acetamide]	5 nM	19 nM	12 nM	14 nM
Cc1ccc([C@H](C)NC(=O)COc2cc(C)c3c(-c4cscn4)nn(C)c3n2)cc1 [Example 4.10, (S)-2-(1,4-dimethyl-3-(thiazol-4-yl)-1H-pyrazolo[3,4-b]pyridin-6-yloxy)-N-(1-p-tolylethyl)acetamide]	5 nM	6 nM	5 nM	5 nM
Cc1ccc([C@H](C)NC(=O)COc2cc(C)c3c(-c4nc(C)cs4)nn(C)c3n2)cc1 [Example 5.1, (S)-2-((1,4-dimethyl-3-(4-methylthiazol-2-yl)-1H-pyrazolo[3,4-b]pyridin-6-yl)oxy)-N-(1-(p-tolyl)ethyl)acetamide]	10 nM	3 nM	10 nM	4 nM
Cc1ccc([C@H](C)NC(=O)COc2cc(C)c3c(-c4nccs4)nn(C)c3n2)cc1 [Example 5.2, (S)-2-(1,4-dimethyl-3-(thiazol-2-yl)-1H-pyrazolo[3,4-b]pyridin-6-yloxy)-N-(1-p-tolylethyl)acetamide]	1 nM	3 nM	6 nM	3 nM
COc1ccnc(-c2nn(C)c3nc(OCC(=O)N[C@@H](C)c4ccc(C)cc4)cc(C)c23)n1 [Example 5.3, (S)-2-(3-(4-methoxypyrimidin-2-yl)-1,4-dimethyl-1H-pyrazolo[3,4-b]pyridin-6-yloxy)-N-(1-p-tolylethyl)acetamide]	39 nM	19 nM	10 nM	7 nM
Cc1ccc([C@H](C)NC(=O)COc2cc(C)c3c(-c4cncs4)nn(C)c3n2)cc1 [Example 5.4, (S)-2-(1,4-dimethyl-3-(thiazol-5-yl)-1H-pyrazolo[3,4-b]pyridin-6-yloxy)-N-(1-p-tolylethyl)acetamide]	11 nM	26 nM	179 nM	46 nM
COc1nc(-c2nn(C)c3nc(OCC(=O)N[C@@H](C)c4ccc(C)cc4)cc(C)c23)cs1 [Example 5.5, (S)-2-(3-(2-methoxythiazol-4-yl)-1,4-dimethyl-1H-pyrazolo[3,4-b]pyridin-6-yloxy)-N-(1-p-tolylethyl)acetamide]	28 nM	37 nM	21 nM	15 nM
Cc1ccc([C@H](C)NC(=O)COc2cc(C)c3c(-c4ncc(C)s4)nn(C)c3n2)cc1 [Example 5.6, (S)-2-(1,4-dimethyl-3-(5-methylthiazol-2-yl)-1H-pyrazolo[3,4-b]pyridin-6-yloxy)-N-(1-p-tolylethyl)acetamide]	5 nM	3 nM	6 nM	4 nM
Cc1ccc([C@H](C)NC(=O)COc2cc(C)c3c(-c4cccc(C)n4)nn(C)c3n2)cc1 [Example 5.7, (S)-2-(1,4-dimethyl-3-(6-methylpyridin-2-yl)-1H-pyrazolo[3,4-b]pyridin-6-yloxy)-N-(1-p-tolylethyl)acetamide]	56 nM	21 nM	46 nM	10 nM
Cc1ccc2c(n1)CC[C@@H]2NC(=O)COc1cc(C(F)F)c2c(C3CC3)nn(C)c2n1 [Example 6.2, (S)-2-(3-cyclopropyl-4-(difluoromethyl)-1-methyl-1H-pyrazolo[3,4-b]pyridin-6-yloxy)-N-(2-methyl-6,7-dihydro-5H-cyclopenta[b]pyridin-5-yl)acetamide]	50 nM	75 nM	284 nM	61 nM
Cc1ccc(C(C)(C)NC(=O)COc2cc(C)c3c(C4CC4)nn(C)c3n2)cc1 [Example 6.6, 2-(3-cyclopropyl-1,4-dimethyl-1H-pyrazolo[3,4-b]pyridin-6-yloxy)-N-(2-p-tolylpropan-2-yl)acetamide]	47 nM	138 nM	606 nM	1010 nM
COc1ccc([C@H](C)NC(=O)COc2cc(C(F)F)c3c(C4CC4)nn(C)c3n2)cc1 [Example 6.7, (S)-2-(3-cyclopropyl-4-(difluoromethyl)-1-methyl-1H-pyrazolo[3,4-b]pyridin-6-yloxy)-N-(1-(4-methoxyphenyl)ethyl)acetamide]	21 nM	27 nM	68 nM	36 nM
Cc1ccc([C@H](C)NC(=O)COc2cc(C(F)F)c3c(C4CC4)nn(C)c3n2)cc1 [Example 6.8, (S)-2-(3-cyclopropyl-4-(difluoromethyl)-1-methyl-1H-pyrazolo[3,4-b]pyridin-6-yloxy)-N-(1-p-tolylethyl)acetamide]	5 nM	19 nM	14 nM	22 nM
Cc1ccc([C@H](C)NC(=O)COc2cc(C(F)(F)F)c3c(C4CC4)nn(C)c3n2)cc1 [Example 6.13, (S)-2-(3-cyclopropyl-1-methyl-4-(trifluoromethyl)-1H-pyrazolo[3,4-b]pyridin-6-yloxy)-N-(1-p-tolylethyl)acetamide]	6 nM	14 nM	52 nM	44 nM
COc1ccc(C(C)NC(=O)COc2cc(C(F)(F)F)c3c(C4CC4)nn(C)c3n2)cn1 (stereo not shown) [Example 6.14, 2-(3-cyclopropyl-1-methyl-4-(trifluoromethyl)-1H-pyrazolo[3,4-b]pyridin-6-yloxy)-N-(1-(6-methoxypyridin-3-yl)ethyl)acetamide]	72 nM	141 nM	523 nM	428 nM
COc1ccc([C@H](C)NC(=O)COc2cc(C(F)(F)F)c3c(C4CC4)nn(C)c3n2)cc1 [Example 6.15, (S)-2-(3-cyclopropyl-1-methyl-4-(trifluoromethyl)-1H-pyrazolo[3,4-b]pyridin-6-yloxy)-N-(1-(4-methoxyphenyl)ethyl)acetamide]	12 nM	37 nM	160 nM	146 nM
COc1ccc([C@H](C)NC(=O)COc2cc(C(F)F)c3c(-c4ccccc4)nn(C)c3n2)cc1 [Example 6.17, (S)-2-(4-(difluoromethyl)-1-methyl-3-phenyl-1H-pyrazolo[3,4-b]pyridin-6-yloxy)-N-(1-(4-methoxyphenyl)ethyl)acetamide]	2 nM	7 nM	19 nM	11 nM
